Values joined by “and” are separate entries in the source; they are usually repeats but may differ in a detail not shown here. Identical values can stand only once. “Also recorded” adds a separate entry of the source. Counter-ions that a name gives are not always drawn. Like-named read-outs stand apart in the source and are kept apart here. Where a SMILES comes first, the peptide text is derived from it. The star is where a group is joined. Cbz = O=C(OCc1ccccc1)*
Key:
N-acyl-L-proline acylase [1] = assay: Substrate specificity: hydrolysis of N-acyl amino acids and proline derivatives; assay type: biochemical, Comamonas testosteroni DSM 5416; conditions: for Rel. activity (%) / Relative Activity (%): N-acetyl-L-proline = 100%; for Relative Activity (%): proline derivatives
Protocol: The activity of acylase was determined with various N-acetyl-L-amino acids and N-chloroacetyl-L-amino acids in a reaction batch with the following composition:
The reaction temperature was 30° C. and the incubation time 15 minutes to 24 hours. 0.2 ml samples of the reaction batch in each instance were mixed at different times with 0.2 ml 10% (w/v) trichloroacetic acid and the denatured protein centrifuged off for 10 minutes at 11,000 rpms in a table centrifuge. The supernatant was diluted with a 0.1M Na citrate buffer pH 2.2 with 25% (v/v) 2.2-thiodiethanol and 0.1% (v/v) phenol 1:5 and 1:50 respectively. The amino acids released were quantitatively detected by an amino-acid analyzer LC 5001 of the firm Biotronic, Maintal, Federal Republic of Germany. In Table 16, the substrates marked with * and the corresponding products were quantified by means of HPLC.
The activity of the acylase was determined with various proline derivatives as under a).

N-acyl-L-proline acylase [2] = assay type: biochemical, Comamonas testosteroni DSM 5416
Protocol: The enzymatic reaction was interrupted by pipetting 50 μl of the enzyme sample into 1.25 ml 100% acetic acid. Subsequently, 0.45 ml 0.1M tris-HCl buffer pH 7.0 and 1.25 ml ninhydrin reagent (3 g ninhydrin dissolved by heating in a mixture of 60 ml 100% acetic acid and 40 ml 6M phosphoric acid) were added. The ninhydrin reagent was freshly prepared daily. The test tubes were loosely closed with screw-on caps, incubated 30 minutes at 100° C. and subsequently cooled down in an ice bath.
The L-proline, liberated by the enzymatic hydrolysis, forms a red dye with ninhydrin at 100° C. The absorption of the red dye was measured in a spectrophotometer at 480 nm relative to a control batch without crude extract (=substrate blank). The concentration of the L-proline produced was determined using a straight calibration line with L-proline in a range of 5 to 100 nmoles per 50 μl specimen. The enzyme activity was indicated in international units; thus, one unit (U) corresponded to an amount of 1 μmole L-proline produced per minute.
The influence of various chemical agents as well as metal cations and anions on the reaction speed of the hydrolytic splitting of N-acetyl-L-proline was determined at 30° C. in a reaction batch with the following composition: […]
The enzyme was pre-incubated for 10 minutes at 30° C. with the compound before the addition of substrate to start the reaction.
The enzyme was pre-incubated for 10 minutes at 30° C. with the agent before the substrate was added to start the reaction.
The enzyme was pre-incubated 10 minutes at 30° C. with the agent before the substrate was added to start the reaction. The concentration of the anions was 10 mM in each instance.

[3] = 20 mM substrate 1.0 ml in 2.0 ml batch, 30° C., pH 7.0, amino-acid analyzer
[4] = substrate concentration 50 mM, quantified by HPLC
[5] = chemical agent 1 mM, 10 min pre-incubation at 30° C., no agent = 100
[6] = chemical agent 10 mM, 10 min pre-incubation at 30° C., no agent = 100

## CC(=O)NC(CO)C(=O)O (racemic) [Ac--D,L--Ser]
N-acyl-L-proline acylase [1]; [3]
  Rel. activity (%): 0.2%

## O=C(O)C1CCCCN1C(=O)CCl (racemic) [ClAc--D,L-pipecolic acid, N-chloroacetyl-D,L-pipecolic acid]
N-acyl-L-proline acylase [1]
  Hydrolysis by the acylase (in words): reacted at a distinctly lower speed
N-acyl-L-proline acylase [1]; [4]
  Rel. activity (%): 16%

## O=C(O)C1SCCN1C(=O)CCl (racemic) [ClAc--D,L-thiazolidine-2-carboxylic acid, N-chloroacetyl-DL-thiazolidine-2-carboxylic acid]
N-acyl-L-proline acylase [1]
  Hydrolysis by the acylase (in words): hydrolyzed especially well
N-acyl-L-proline acylase [1]; [4]
  Rel. activity (%): 202%

## O[C@H](CS)[C@H](O)CS (racemic) [Dithiothreitol]
N-acyl-L-proline acylase [2]; [5]
  Activity (%): 129%
N-acyl-L-proline acylase [2]; [6]
  Activity (%): 48%

## c1ccc(-c2ccccn2)nc1 [2,2-bipyridine]
N-acyl-L-proline acylase [2]; [5]
  Activity (%): 102%
N-acyl-L-proline acylase [2]; [6]
  Activity (%): 66%

## OCCS [2-mercaptoethanol]
N-acyl-L-proline acylase [2]; chemical agent 14 mM, 10 min pre-incubation at 30° C.
  Activity (%): 14%
N-acyl-L-proline acylase [2]; native enzyme
  Influence on the acylase activity (in words): inhibiting action; also recorded: significantly inhibit

## O=C([O-])c1cc[c]([Hg][Cl])cc1 [4-chloromercuribenzoate]
N-acyl-L-proline acylase [2]; [5]
  Activity (%): 85%
N-acyl-L-proline acylase [2]; [6]
  Activity (%): 48%
N-acyl-L-proline acylase [2]; native enzyme
  Influence on the acylase activity (in words): inhibiting action; also recorded: significantly inhibit

## O=C([O-])c1cc[c]([Hg][OH])cc1 [4-hydroxymercuribenzoate]
N-acyl-L-proline acylase [2]; [5]
  Activity (%): 88%
N-acyl-L-proline acylase [2]; [6]
  Activity (%): 41%
N-acyl-L-proline acylase [2]; native enzyme
  Influence on the acylase activity (in words): inhibiting action; also recorded: significantly inhibit

## CC(=O)N[C@@H](C)C(=O)N1CCC[C@H]1C(=O)O [Ac--L--Ala--L--Pro--OH] (Ac-Ala-Pro-OH)
N-acyl-L-proline acylase [1]; 30° C., pH 7.0
  Relative Activity (%): 0%

## CC(=O)N[C@@H](CS)C(=O)O [Ac--L--Cys]
N-acyl-L-proline acylase [1]; [3]
  Rel. activity (%): 0%

## CC(=O)N[C@@H](Cc1ccc(O)cc1)C(=O)O [Ac--L--Tyr]
N-acyl-L-proline acylase [1]; [3]
  Rel. activity (%): 0%

## CC(=O)N[C@H](C(=O)O)C(C)C [Ac--L--Val]
N-acyl-L-proline acylase [1]; [3]
  Rel. activity (%): 0.2%

## CC(=O)N1CC[C@H]1C(=O)O [Ac--L-azetidine-2-carboxylic acid]
N-acyl-L-proline acylase [1]; quantified by HPLC
  Rel. activity (%): 0%

## CC(C)(C)OC(=O)N1CCC[C@H]1C(=O)O [Boc--L--Pro--OH]
N-acyl-L-proline acylase [1]; 30° C., pH 7.0
  Relative Activity (%): 0%

## O=C(CCl)NC1(C(=O)O)CCCCC1 [ClAc--D,L-1-aminocyclohexanoic acid]
N-acyl-L-proline acylase [1]; [3]
  Rel. activity (%): 0%

## CC[C@H](C)[C@H](NC(=O)CCl)C(=O)O [ClAc--L--Ile]
N-acyl-L-proline acylase [1]; [3]
  Rel. activity (%): 0.5%

## O=C(O)[C@@H]1Cc2ccccc2N1C(=O)CCl [ClAc--L-indolin-2-carboxylic acid]
N-acyl-L-proline acylase [1]; quantified by HPLC
  Rel. activity (%): 0%

## O=C(O)CN(CCN(CC(=O)O)CC(=O)O)CC(=O)O [EDTA]
N-acyl-L-proline acylase [2]
  Activity (%): 101% and 99%

## N[C@@H](CCC(=O)N[C@@H](CS)C(=O)NCC(=O)O)C(=O)O [Glutathione]
N-acyl-L-proline acylase [2]
  Activity (%): 116% and 135%

## C[C@H](N)C(=O)N1CCC[C@H]1C(=O)O [H--L Ala--L--Pro--OH] (H-Ala-Pro-OH)
N-acyl-L-proline acylase [1]; 30° C., pH 7.0
  Relative Activity (%): 0%

## O=C(O)CNC(=O)[C@@H]1CCCN1 [H--L--Pro--Gly--OH] (H-Pro-Gly-OH)
N-acyl-L-proline acylase [1]; 30° C., pH 7.0
  Relative Activity (%): 0%

## NC(=O)[C@@H]1CCCN1 [H--L--Pro--NH2]
N-acyl-L-proline acylase [1]; 30° C., pH 7.0
  Relative Activity (%): 0%

## NC(=O)CI [Iodoacetamide]
N-acyl-L-proline acylase [2]; [5]
  Activity (%): 104%
N-acyl-L-proline acylase [2]; [6]
  Activity (%): 101%

## O=C(O)CI [Iodoacetate]
N-acyl-L-proline acylase [2]
  Activity (%): 97% and 77%

## O=[N+]([O-])[O-].[K+] [KNO3]
N-acyl-L-proline acylase [2]; anion 10 mM, no agent = 100
  Activity (%): 96%

## CC(=O)N1CC(O)C[C@H]1C(=O)O (stereo partly drawn) [N-acetyl-L-4-hydroxyproline]
N-acyl-L-proline acylase [1]
  Hydrolysis by the acylase (in words): hydrolyzes
N-acyl-L-proline acylase [1]; 30° C., pH 7.0
  Relative Activity (%): 10%

## COC(=O)[C@@H]1CCCN1C(C)=O [N-acetyl-L-proline methyl ester]
N-acyl-L-proline acylase [1]
  Hydrolysis by the acylase (in words): not hydrolyzed
N-acyl-L-proline acylase [1]; 30° C., pH 7.0
  Relative Activity (%): 0%

## CC(=O)N1CCC[C@H]1C(N)=O [N-acetyl-L-prolineamide]
N-acyl-L-proline acylase [1]
  Hydrolysis by the acylase (in words): not hydrolyzed
N-acyl-L-proline acylase [1]; 30° C., pH 7.0
  Relative Activity (%): 0%

## O=C(NCC(=O)N1CCC[C@H]1C(=O)O)OCc1ccccc1 [N-benzyloxycarbonyl-glycyl-L-proline] (Cbz-Gly-Pro-OH)
N-acyl-L-proline acylase [1]
  Hydrolysis by the acylase (in words): hydrolyzes
N-acyl-L-proline acylase [1]; 30° C., pH 7.0
  Relative Activity (%): 11%

## CCCC(=O)N1CCC[C@H]1C(=O)O [N-butyryl-L-proline]
N-acyl-L-proline acylase [1]
  Hydrolysis by the acylase (in words): hydrolyzes
N-acyl-L-proline acylase [1]; 30° C., pH 7.0
  Relative Activity (%): 14%

## CCCCCC(=O)N1CCC[C@H]1C(=O)O [N-caproyl-L-proline]
N-acyl-L-proline acylase [1]
  Hydrolysis by the acylase (in words): hydrolyzes
N-acyl-L-proline acylase [1]; 30° C., pH 7.0
  Relative Activity (%): 9%

## O=C(O)[C@@H]1CCCCN1C(=O)CCl [N-chloroacetyl-L-pipecolic acid]
N-acyl-L-proline acylase [1]
  Hydrolysis by the acylase (in words): hydrolyzes

## O=C(O)[C@@H]1CCCN1C(=O)CCl [N-chloroacetyl-L-proline]
N-acyl-L-proline acylase [1]
  Hydrolysis by the acylase (in words): hydrolyzes; also recorded: hydrolyzed especially well
  Hydrolysis rate, times more rapid than N-acetyl-L-proline: about 3.6 times
N-acyl-L-proline acylase [1]; [3]
  Rel. activity (%): 362%
N-acyl-L-proline acylase [1]; 30° C., pH 7.0
  Relative Activity (%): 362%

## O=C(O)[C@@H]1SCCN1C(=O)CCl [N-chloroacetyl-L-thiazolidine-2-carboxylic acid]
N-acyl-L-proline acylase [1]
  Hydrolysis by the acylase (in words): hydrolyzes

## O=C(O)[C@@H]1CSCN1C(=O)CCl [N-chloroacetyl-L-thiazolidine-4-carboxylic acid]
N-acyl-L-proline acylase [1]
  Hydrolysis by the acylase (in words): hydrolyzes; also recorded: hydrolyzed especially well
N-acyl-L-proline acylase [1]; [3]
  Rel. activity (%): 462%

## O=CN1CCC[C@H]1C(=O)O [N-formyl-L-proline]
N-acyl-L-proline acylase [1]
  Hydrolysis by the acylase (in words): hydrolyzes
N-acyl-L-proline acylase [1]; 30° C., pH 7.0
  Relative Activity (%): 18%

## O=C(O)O [Na2 CO3]
N-acyl-L-proline acylase [2]
  Activity (%): 75%
  Influence on the acylase activity (in words): slightly inhibited

## O=S(=O)([O-])[O-].[Na+].[Na+] [Na2 SO4]
N-acyl-L-proline acylase [2]; anion 10 mM, no agent = 100
  Activity (%): 96%

## O=C(O)CC(O)(CC(=O)O)C(=O)O [Na citrate]
N-acyl-L-proline acylase [2]; [5]
  Activity (%): 102%
N-acyl-L-proline acylase [2]; [6]
  Activity (%): 102%

## [Cl-].[Na+] [NaCl]
N-acyl-L-proline acylase [2]
  Activity (%): 99%

## O=P([O-])(O)O.[Na+] [NaH2 PO4]
N-acyl-L-proline acylase [2]
  Inhibiting mechanism: non-competitive
N-acyl-L-proline acylase [2]; anion 10 mM, no agent = 100
  Activity (%): 6%
N-acyl-L-proline acylase [2]; native enzyme, listed as PO4^3-
  Influence on the acylase activity (in words): inhibiting action
N-acyl-L-proline acylase [2]; native enzyme, listed as Phosphate
  Influence on the acylase activity (in words): inhibited
N-acyl-L-proline acylase [2]; native enzyme, listed as phosphate
  Influence on the acylase activity (in words): sharply inhibited

## O=N[O-].[Na+] [NaNO2]
N-acyl-L-proline acylase [2]
  Activity (%): 71%
  Influence on the acylase activity (in words): slightly inhibited

## O=S(=O)(F)Cc1ccccc1 [PMSF]
N-acyl-L-proline acylase [2]; chemical agent 0.1 mM, 10 min pre-incubation at 30° C.
  Activity (%): 104%
N-acyl-L-proline acylase [2]; [5]
  Activity (%): 130%

## NNC(N)=O [Semicarbazide]
N-acyl-L-proline acylase [2]; [5]
  Activity (%): 109%
N-acyl-L-proline acylase [2]; [6]
  Activity (%): 95%
